Experimental data as given in ChEMBL document CHEMBL1149878, “Tetramic and tetronic acids: an update on new derivatives and biological aspects” (Bioorg Med Chem, 2008).
In brackets after ≈: the same amount, converted by molar mass. Where a SMILES comes first, the peptide text is derived from it. [ ]: non-standard residue; d: D form. The star is where a group is joined. X1 = COC1=CC(=O)N(C(=O)[C@@H](O*)C(C)C)[C@H]1Cc1ccccc1; NMe2Val = CC(C)[C@@H](C(=O)*)N(C)C; NMeV = CN[C@H](C(=O)O)C(C)C

Experiments:
Plasmodium falciparum = assay: Antiplasmodial activity against Plasmodium falciparum after 72 hrs; type: functional, organism-based
A549 [1] = assay: Growth inhibition of human A549 cells by MTT assay after 24 hrs; type: functional, cell-based; details: A549, 24 h
Bel-7402 = assay: Growth inhibition of human Bel7402 cells by MTT assay after 24 hrs; type: functional, cell-based; details: Bel-7402, 24 h
P388 = assay: Growth inhibition of mouse P388 cells by MTT assay after 24 hrs; type: functional, cell-based; details: P388, 24 h
[2] = Toxicity in rat; type: organism-based; details: in vivo, read-out: LC50 (the source's name)
A549 [3] = assay: Cytotoxicity against human A549 cells; type: functional, cell-based
SK-OV-3 = assay: Cytotoxicity against human SK-OV-3 cells; type: functional, cell-based
SK-MEL-2 = assay: Cytotoxicity against human SK-Mel-2 cells; type: functional, cell-based
XF498 = assay: Cytotoxicity against human XF498 cells; type: functional, cell-based
HCT-15 = assay: Cytotoxicity against human HCT15 cells; type: functional, cell-based
[4] = target: M-phase inducer phosphatase 2 (Homo sapiens, UniProt P30305); assay: Inhibition of cdc25B
Chain of M-phase inducer phosphatase 2 (P30305 whole entry): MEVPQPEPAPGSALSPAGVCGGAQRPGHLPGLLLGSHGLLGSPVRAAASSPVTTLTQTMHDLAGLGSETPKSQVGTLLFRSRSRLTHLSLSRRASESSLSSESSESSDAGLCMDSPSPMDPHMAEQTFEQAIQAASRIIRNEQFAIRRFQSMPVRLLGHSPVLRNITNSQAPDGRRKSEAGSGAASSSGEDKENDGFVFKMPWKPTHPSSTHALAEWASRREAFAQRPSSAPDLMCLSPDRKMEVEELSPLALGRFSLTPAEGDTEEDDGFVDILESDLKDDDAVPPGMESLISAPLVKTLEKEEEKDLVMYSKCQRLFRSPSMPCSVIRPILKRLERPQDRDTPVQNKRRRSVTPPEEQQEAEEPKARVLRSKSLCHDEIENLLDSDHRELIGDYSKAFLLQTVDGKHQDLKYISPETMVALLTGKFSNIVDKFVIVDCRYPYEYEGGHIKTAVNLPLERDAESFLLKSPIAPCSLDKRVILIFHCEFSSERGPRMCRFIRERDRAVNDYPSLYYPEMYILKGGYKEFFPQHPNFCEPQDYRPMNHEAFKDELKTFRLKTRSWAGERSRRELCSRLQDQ

[5] = Selectivity for cdc25B over VHR
[6] = Inhibition of Escherichia coli H560 DNA gyrase
Staphylococcus aureus [7] = assay: Antimicrobial activity against methicillin-resistant Staphylococcus aureus F597; type: functional
L929 = assay: Growth inhibition of mouse L929 cells; type: cell-based
A498 = assay: Growth inhibition of human A498 cells; type: functional, cell-based
[8] = Growth inhibition of human KB3-1 cells; type: functional, cell-based; details: KB 3-1
HeLa = assay: Growth inhibition of human HeLa cells; type: functional, cell-based
Beta-secretase 1 = Beta-secretase 1 (Homo sapiens, UniProt P56817); assay: Inhibition of BACE1 by FRET assay
Chain of Beta-secretase 1 (P56817 whole entry): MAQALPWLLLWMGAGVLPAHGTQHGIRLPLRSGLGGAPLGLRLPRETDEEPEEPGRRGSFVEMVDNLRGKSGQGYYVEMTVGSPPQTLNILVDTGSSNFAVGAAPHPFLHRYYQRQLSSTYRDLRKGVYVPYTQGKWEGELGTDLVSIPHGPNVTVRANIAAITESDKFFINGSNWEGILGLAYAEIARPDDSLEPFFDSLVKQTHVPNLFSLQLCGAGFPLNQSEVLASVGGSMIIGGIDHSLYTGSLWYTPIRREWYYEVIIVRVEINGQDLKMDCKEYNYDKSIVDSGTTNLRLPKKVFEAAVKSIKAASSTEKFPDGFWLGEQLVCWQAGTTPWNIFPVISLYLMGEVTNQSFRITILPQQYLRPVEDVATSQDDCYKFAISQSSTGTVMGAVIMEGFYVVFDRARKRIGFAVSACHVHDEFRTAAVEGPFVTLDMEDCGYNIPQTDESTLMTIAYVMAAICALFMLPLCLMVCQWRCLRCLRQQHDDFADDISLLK

B16 = assay: Cytotoxicity against mouse B16 cells; type: functional, cell-based
Streptococcus equinus = assay: Antimicrobial activity against Streptococcus bovis A5169; type: functional
Enterococcus = assay: Antimicrobial activity against Enterococcus; type: functional
Legionella = assay: Antimicrobial activity against Legionella; type: functional
Bacteroides fragilis = assay: Antimicrobial activity against Bacteroides fragilis; type: functional
Streptococcus pyogenes = assay: Antimicrobial activity against Streptococcus pyogenes 930; type: functional
Staphylococcus aureus [9] = assay: Antimicrobial activity against Staphylococcus aureus; type: functional
[10] = Inhibition of Escherichia coli MurB
Escherichia coli = assay: Antimicrobial activity against Escherichia coli; type: functional

Structure (SMILES): COC1=CC(=O)N(C(=O)[C@@H](OC(=O)[C@@H]2CCCN2C(=O)[C@@H]2CCCN2C(=O)[C@H](C(C)C)N(C)C(=O)[C@@H](NC(=O)[C@H](C(C)C)N(C)C)C(C)C)C(C)C)[C@H]1Cc1ccccc1 [DOLASTATIN 15] (NMe2Val-V[NMeV]PP-X1)
- IC50 (Plasmodium falciparum): 0.2 µM

Structure (SMILES): CCCCCCC(C)/C(O)=C1\C(=O)[C@@H]([C@@H](C)O)N(C)C1=O (stereo partly specified) [PENICILLENOL A2]
- IC50 (A549 [1]): > 100 µM
- IC50 (Bel-7402): > 100 µM
- IC50 (P388): > 100 µM

Structure (SMILES): CC(=O)C1=C(O)[C@@H]2[C@H]3c4c[nH]c5cccc(c45)C[C@H]3C(C)(C)N2C1=O [CYCLOPIAZONIC ACID]
- LD50 [2]: 30 mg/kg

Structure (SMILES): C=C1C=C(CCC/C(C)=C/C=C/[C@@H](C)CC/C=C(/C)CC2OC(=O)C(C)=C2O)C(=O)N1CCC(C)C (stereo partly drawn) [(S)-SARCOTRINE A]
- IC50 (A549 [3]): 3.4 µg/mL (≈ 6.86 µM)
- IC50 (SK-OV-3): 3.4 µg/mL (≈ 6.86 µM)
- IC50 (SK-MEL-2): 3.4 µg/mL (≈ 6.86 µM)
- IC50 (XF498): 3.4 µg/mL (≈ 6.86 µM)
- IC50 (HCT-15): 3.4 µg/mL (≈ 6.86 µM)

Structure (SMILES): C/C=C1\C(=O)/C(=C(/O)C(C)CCCCCC)C(=O)N1C (stereo unspecified) [PENICILLENOL B2]
- IC50 (A549 [1]): > 100 µM
- IC50 (Bel-7402): > 100 µM
- IC50 (P388): > 100 µM

Structure (SMILES): CCCCCCCCCCCCCCCC(=O)C1=C(O)[C@@H](COC(=O)N=C=NC(=O)OCC)OC1=O
- IC50 [4]: 0.4 µM
- Selectivity ratio [5]: 30

Structure (SMILES): CC(/C=C/C(O)=C1\C(=O)CNC1=O)=C\c1ccc2ccccc2c1
- IC50 [6]: 3.5 µg/mL (≈ 11 µM)

Structure (SMILES): CC1=C[C@H]2[C@H](O)CC[C@@](C)(/C(O)=C3/C(=O)CNC3=O)[C@H]2C[C@@H]1CCC(C)C(O)/C(C)=C/CC(O)/C=C/C(C)C(O)/C=C/CC(O)/C=C/CC(O)CC1CCCN1C(=N)N (stereo partly specified) [TPU-0037 A]
- MIC (Staphylococcus aureus [7]): 3.13 µg/mL (≈ 3.79 µM)

Structure (SMILES): CCCCCCCC(C)CCC/C(O)=C1\C(=O)C(C)N(C)C1=O (stereo unspecified) [MELOPHLIN C]
- IC50 (L929): < 10 µM
- IC50 (A498): < 10 µM
- IC50 [8]: < 10 µM
- IC50 (HeLa): < 10 µM

Structure (SMILES): CCC(C)C1NC(=O)C(SCc2cccc(C(F)(F)F)c2)=C1O (stereo unspecified)
- IC50 (Beta-secretase 1): 60 µM

Structure (SMILES): C[C@H]1C=CC2C1C[C@H]1/C=C/CC/C(O)=C3/C(=O)N[C@H](C3=O)[C@@H](O)CCNC(=O)/C=C/C=C\C[C@H]21 (stereo partly specified) [CYLINDRAMIDE]
- IC50 (B16): 0.8 µg/mL (≈ 1.71 µM)

Structure (SMILES): CCC(C)CCCCCCCCCC/C(O)=C1\C(=O)C(C)N(C)C1=O (stereo unspecified) [MELOPHLIN R]
- IC50 (L929): < 10 µM
- IC50 (A498): < 10 µM
- IC50 [8]: < 10 µM
- IC50 (HeLa): < 10 µM

Structure (SMILES): CC(/C=C/C(O)=C1/C(=O)CNC1=O)=C\[C@@H](C)[C@H]1O[C@@]2(C)O[C@@H](C=C[C@@]23CO3)[C@H]1C [TIRANDALYDIGIN]
- MIC (Streptococcus equinus): 12.5 µg/mL (≈ 31.1 µM)
- MIC (Enterococcus): > 16 µg/mL
- MIC (Legionella): > 32 µg/mL
- MIC (Bacteroides fragilis): 0.5 µg/mL (≈ 1.25 µM)
- MIC (Streptococcus pyogenes): 3.1 µg/mL (≈ 7.72 µM)

Structure (SMILES): C=C1C=C(CCC/C(C)=C/C=C/[C@H](C)CC/C=C(/C)CC2OC(=O)C(C)=C2O)C(=O)N1CCC(C)C (stereo partly drawn) [(R)-SARCOTRINE A]
- IC50 (A549 [3]): 3.4 µg/mL (≈ 6.86 µM)
- IC50 (SK-OV-3): 3.4 µg/mL (≈ 6.86 µM)
- IC50 (SK-MEL-2): 3.4 µg/mL (≈ 6.86 µM)
- IC50 (XF498): 3.4 µg/mL (≈ 6.86 µM)
- IC50 (HCT-15): 3.4 µg/mL (≈ 6.86 µM)

Structure (SMILES): O=C1O/C(=C\c2cccc3ccccc23)C(O)=C1c1cc(Cl)cc(Cl)c1
- MIC (Staphylococcus aureus [9]): 1 µg/mL (≈ 2.61 µM)
- IC50 [10]: 21 µM
- Kd [10]: 0.04 µM
- MIC (Escherichia coli): 1 µg/mL (≈ 2.61 µM)
